Source: ChEMBL document CHEMBL4616717, “Discovery of GNE-149 as a Full Antagonist and Efficient Degrader of Estrogen Receptor alpha for ER+ Breast Cancer” (ACS Med Chem Lett, 2020)
The source made the active and inactive calls. The rule behind the calls is not given here.

Key:
MCF7 [1] = assay: Antiproliferative activity against human MCF7 cells assessed as reduction in cell viability after 72 hrs by Celltiter-Glo assay; assay type: functional, cell-based; settings: MCF7, 72 h
Estrogen receptor [2] = target: T1, Estrogen receptor (Homo sapiens, UniProt P03372); assay: Induction of ERalpha degradation in human MCF7 cells after 4 hrs by FITC/Hoechst staining based immunofluorescence imaging analysis; assay type: cell-based
T1 sequence (P03372 whole entry): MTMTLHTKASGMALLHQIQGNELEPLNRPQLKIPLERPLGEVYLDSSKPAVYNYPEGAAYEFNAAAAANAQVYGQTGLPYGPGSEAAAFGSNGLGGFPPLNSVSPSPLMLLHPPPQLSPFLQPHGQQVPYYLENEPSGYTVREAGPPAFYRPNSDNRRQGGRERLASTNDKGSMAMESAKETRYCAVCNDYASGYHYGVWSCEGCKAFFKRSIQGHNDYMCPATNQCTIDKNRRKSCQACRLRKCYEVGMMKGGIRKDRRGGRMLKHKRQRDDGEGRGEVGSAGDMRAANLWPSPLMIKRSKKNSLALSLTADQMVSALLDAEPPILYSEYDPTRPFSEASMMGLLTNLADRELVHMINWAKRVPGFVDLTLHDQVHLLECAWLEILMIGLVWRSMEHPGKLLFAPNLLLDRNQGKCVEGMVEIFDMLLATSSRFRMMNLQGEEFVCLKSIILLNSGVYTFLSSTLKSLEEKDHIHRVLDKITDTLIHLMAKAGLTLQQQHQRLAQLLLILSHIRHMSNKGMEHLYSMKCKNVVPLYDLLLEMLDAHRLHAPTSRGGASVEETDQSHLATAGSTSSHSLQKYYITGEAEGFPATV

[3] = Oral bioavailability in rat; settings: in vivo
MCF7 [4] = assay: Antitumor activity against human MCF7 cells harboring ER Y537S mutant xenografted in po dosed CRL:NU-Foxn1 mouse assessed as tumor regression administered qd for 21 days in presence of 17-beta estradiol pellets and measured twice per week by caliper method; assay type: functional, organism-based
MCF7 [5] = assay: Antitumor activity against human MCF7 cells harboring ER Y537S mutant xenografted in CRL:NU-Foxn1 mouse assessed as tumor regression at 1 to 30 mg/kg, po qd for 21 days in presence of 17-beta estradiol pellets and measured twice per week by caliper method; assay type: functional, organism-based
[6] = Oral bioavailability in dog; settings: in vivo
Estrogen receptor [7] = target: T1, Estrogen receptor; assay: Agonist activity at ERalpha in human Ishikawa cells after 72 hrs by alkaline phosphatase assay; assay type: cell-based
MCF7 [8] = assay: Antitumor activity against human MCF7 cells expressing wild-type ER xenografted in po dosed CRL:NU-Foxn1 mouse administered qd for 28 days in presence of 17-beta-estradiol pellets and measured twice per week by caliper method; assay type: functional, organism-based
[9] = target: T2, Estrogen receptor (Rattus norvegicus) (UniProt P06211); assay: In vivo antagonist activity at ERalpha in CRL:CD(SD) rat assessed as inhibition of estradiol-induced increase in uterine wet weight at 10 mg/kg, po administered as MCT suspension for 3 days and measured at 4 hrs post last dose on day 4; assay type: functional, organism-based
T2 sequence (whole entry): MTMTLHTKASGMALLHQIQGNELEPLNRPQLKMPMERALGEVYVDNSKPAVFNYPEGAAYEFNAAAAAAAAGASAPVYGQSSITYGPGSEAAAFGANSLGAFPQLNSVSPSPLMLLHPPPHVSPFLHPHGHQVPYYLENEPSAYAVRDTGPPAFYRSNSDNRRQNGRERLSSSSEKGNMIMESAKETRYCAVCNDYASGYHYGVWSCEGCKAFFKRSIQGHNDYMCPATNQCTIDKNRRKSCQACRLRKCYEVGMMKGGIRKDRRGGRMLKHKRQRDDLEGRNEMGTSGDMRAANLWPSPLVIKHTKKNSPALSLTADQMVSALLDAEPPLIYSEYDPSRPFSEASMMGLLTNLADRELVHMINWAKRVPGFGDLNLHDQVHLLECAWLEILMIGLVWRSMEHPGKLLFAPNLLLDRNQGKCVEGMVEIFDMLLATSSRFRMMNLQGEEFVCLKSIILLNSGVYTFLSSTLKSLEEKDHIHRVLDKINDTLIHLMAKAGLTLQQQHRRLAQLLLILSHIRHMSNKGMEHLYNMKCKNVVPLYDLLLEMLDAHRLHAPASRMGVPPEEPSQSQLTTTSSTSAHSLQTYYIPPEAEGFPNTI

T47D = assay: Antiproliferative activity against human T47D cells assessed as reduction in cell viability; assay type: functional, cell-based
[10] = Oral bioavailability in cynomolgus monkey; settings: in vivo
[11] = Clearance in dog; assay type: ADME, Canis lupus familiaris; settings: in vivo
[12] = Clearance in cynomolgus monkey; assay type: ADME, Macaca fascicularis; settings: in vivo
[13] = Clearance in rat; assay type: ADME; settings: in vivo

Row | IC50 (MCF7 [1]) [nM] | IC50 (Estrogen receptor [2]) [nM] | SMILES | other results
1 | 1.7 |  | C[C@@H]1Cc2c([nH]c3ccccc23)[C@@H](c2c(F)cc(OC[C@H](C)N3CC[C@@H](CF)C3)cc2F)N1CC(C)(C)F | 
2 | 1.3 | 0.18 | C[C@@H]1Cc2c([nH]c3ccccc23)[C@@H](c2c(F)cc(OC3CN(CCF)C3)cc2F)N1CC(C)(C)F | 
3 | 0.66 |  | C[C@@H]1Cc2c([nH]c3ccccc23)[C@@H](c2c(F)cc(OC3CN(CCCF)C3)cc2F)N1CC(C)(C)F | bioavailability [3]: 31%; Activity (MCF7 [4]): Dose-dependent effect; Activity (MCF7 [5]): Active; bioavailability [6]: 49%; Activity (Estrogen receptor [7]): Not Active; Activity (MCF7 [8]): Dose-dependent effect; inhibition [9]: Active; IC50 (T47D): 0.69 nM; bioavailability [10]: 28%; clearance [11]: 8 mL/min/kg; clearance [12]: 13 mL/min/kg; clearance [13]: 19 mL/min/kg
4 | 5.6 | 0.52 | C[C@@H]1Cc2c([nH]c3ccccc23)[C@@H](c2c(F)cc(OC3CN(CC4(CF)CC4)C3)cc2F)N1CC(C)(C)F | 
5 | 2.3 |  | C[C@@H]1Cc2c([nH]c3ccccc23)[C@@H](c2c(F)cc(OCCN3CC(C(F)F)C3)cc2F)N1CC(C)(C)F | 
6 | 3 |  | C[C@@H]1Cc2c([nH]c3ccccc23)[C@@H](c2c(F)cc(OC3CN(CCCCl)C3)cc2F)N1CC(C)(C)F | 
7 | 0.82 | 0.083 | C#CCN1CC(Oc2cc(F)c([C@@H]3c4[nH]c5ccccc5c4C[C@@H](C)N3CC(C)(C)F)c(F)c2)C1 | 
8 | 1.6 |  | C[C@@H]1Cc2c([nH]c3ccccc23)[C@@H](c2c(F)cc(OCCN3CC(CF)C3)cc2F)N1CC(C)(C)F | 
9 | 2.7 | 0.38 | C[C@@H]1Cc2c([nH]c3ccccc23)[C@@H](c2c(F)cc(OCCN3CC(F)(CF)C3)cc2F)N1CC(C)(C)F | 
10 | 44 |  | CC/C(=C(/c1ccc(/C=C/C(=O)O)cc1)c1ccc2[nH]ncc2c1)c1ccc(F)cc1Cl [BRILANESTRANT] | IC50 (T47D): 27 nM
11 | 0.84 | 0.15 | C=CCN1CC(Oc2cc(F)c([C@@H]3c4[nH]c5ccccc5c4C[C@@H](C)N3CC(C)(C)F)c(F)c2)C1 | 
12 | 1.5 |  | CCCN1CC(Oc2cc(F)c([C@@H]3c4[nH]c5ccccc5c4C[C@@H](C)N3CC(C)(C)F)c(F)c2)C1 | 
13 | 8.5 | 0.39 | C[C@@H]1Cc2c([nH]c3ccccc23)[C@@H](c2c(F)cc(OC3CN(CCCCF)C3)cc2F)N1CC(C)(C)F | 
14 | 0.9 | 0.19 | CC1CN(CCOc2cc(F)c([C@@H]3c4[nH]c5ccccc5c4C[C@@H](C)N3CC(C)(C)F)c(F)c2)C1 | 
15 | 6.4 | 0.55 | C[C@@H]1Cc2c([nH]c3ccccc23)[C@@H](c2c(F)cc(OC3CN(C[C@H]4C[C@@H]4F)C3)cc2F)N1CC(C)(C)F | 
16 | 1.5 |  | C[C@@H]1Cc2c([nH]c3ccccc23)[C@@H](c2c(F)cc(OCCN3CC[C@@H](CF)C3)cc2F)N1CC(C)(C)F | 
17 | 1.8 | 0.56 | C[C@@H]1Cc2c([nH]c3ccccc23)[C@@H](c2c(F)cc(OC3CN(C[C@H]4C[C@H]4F)C3)cc2F)N1CC(C)(C)F | 

Row | SMILES | IC50 (MCF7 [1]) [nM] | IC50 (Estrogen receptor [2]) [nM] | other results
18 | CC1=C(c2cccc(O)c2)[C@H](c2ccc(OCCN3CC(CF)C3)cc2)Oc2ccc(O)cc21 | 0.3 |  | bioavailability [6]: 23%; Activity (Estrogen receptor [7]): Not Active; IC50 (T47D): 0.29 nM; bioavailability [10]: 5%; clearance [11]: 24 mL/min/kg; clearance [12]: 17 mL/min/kg; clearance [13]: 81 mL/min/kg
19 | C[C@]12CC[C@@H]3c4ccc(O)cc4C[C@@H](CCCCCCCCC[S+]([O-])CCCC(F)(F)C(F)(F)F)[C@H]3[C@@H]1CC[C@@H]2O (stereo not given in full) [FULVESTRANT] | 2.6 |  | Activity (Estrogen receptor [7]): Not Active; IC50 (T47D): 3 nM
